Source: PubChem BioAssay AID1963450 (Molecular Pharmacology Branch, DTP, NCI, 2024)
“And” between values parts separate entries of the source, which are not always exact repeats. Equal entries are not always repeated.

Test system: 556581-035-R-J1-PDC complex spheroid growth
Assay: Anticancer human tumor 556581-035-R-J1-PDC patient-derived ovarian carcinoma cell line growth inhibition [Asc]
Details: for viability, T/C: stronger effect = lower value; active = viability on the fitted dose curve at most 10% of control; inactive = the rest
Method in brief: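 Tumor cells were grown as complex spheroids with human endothelial cells (HUVEC) and human mesenchymal stem cells as stroma. Agents were tested alone and in combination, in half-log steps down from the clinical Cmax, or from 10 microM where Cmax was unknown.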

[1] = curve of first compound, second compound 0.1 µM
[2] = curve of first compound, second compound 0.316 µM
[3] = curve of first compound, second compound 1 µM
[4] = curve of first compound, second compound 3.16 µM
[5] = curve of first compound, second compound 10 µM
[6] = second compound 0.1 µM, first compound 0.0316 µM
[7] = second compound 0.1 µM, first compound 0.1 µM
[8] = second compound 0.316 µM, first compound 0.0316 µM
[9] = second compound 0.316 µM, first compound 0.1 µM
[10] = second compound 1 µM, first compound 0.0316 µM
[11] = second compound 1 µM, first compound 0.1 µM
[12] = second compound 3.16 µM, first compound 0.0316 µM
[13] = second compound 3.16 µM, first compound 0.1 µM
[14] = second compound 10 µM, first compound 0.0316 µM
[15] = second compound 10 µM, first compound 0.1 µM
[16] = curve of first compound, second compound 0.03 µM
[17] = curve of first compound, second compound 0.0949 µM
[18] = curve of first compound, second compound 0.3 µM
[19] = curve of first compound, second compound 0.949 µM
[20] = curve of first compound, second compound 3 µM
[21] = second compound 0.03 µM, first compound 0.00316 µM
[22] = second compound 0.03 µM, first compound 0.01 µM
[23] = second compound 0.03 µM, first compound 0.0316 µM
[24] = second compound 0.03 µM, first compound 0.1 µM
[25] = second compound 0.0949 µM, first compound 0.00316 µM
[26] = second compound 0.0949 µM, first compound 0.01 µM
[27] = second compound 0.0949 µM, first compound 0.0316 µM
[28] = second compound 0.0949 µM, first compound 0.1 µM
[29] = second compound 0.3 µM, first compound 0.00316 µM
[30] = second compound 0.3 µM, first compound 0.01 µM
[31] = second compound 0.3 µM, first compound 0.0316 µM
[32] = second compound 0.3 µM, first compound 0.1 µM
[33] = second compound 0.949 µM, first compound 0.00316 µM
[34] = second compound 0.949 µM, first compound 0.01 µM
[35] = second compound 0.949 µM, first compound 0.0316 µM
[36] = second compound 0.949 µM, first compound 0.1 µM
[37] = second compound 3 µM, first compound 0.00316 µM
[38] = second compound 3 µM, first compound 0.01 µM
[39] = second compound 3 µM, first compound 0.0316 µM
[40] = second compound 3 µM, first compound 0.1 µM
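Also: spheroids exposed to agents for 7 days before viability read.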

O=C(c1cc(Cc2n[nH]c(=O)c3ccccc23)ccc1F)N1CCN(C(=O)C2CC2)CC1 + Cc1c(S(C)(=O)=O)c(-c2cc(F)cc(N3CCN(c4ccc(NS(=O)(=O)c5ccc(NC(CCN6CCC(C(=O)OCCCP(=O)(O)O)CC6)CSc6ccccc6)c(S(=O)(=O)C(F)(F)F)c5)cc4)CC3)c2)c(-c2ccc(Cl)cc2)n1C(C)C
inactive: viability, T/C [6] 87.3% | viability, T/C [7] 81.3% | viability, T/C (second compound 0.1 µM, first compound 0.316 µM) 92.9% | viability, T/C (second compound 0.1 µM, first compound 1 µM) 96% | viability, T/C (second compound 0.1 µM, first compound 3.16 µM) 82.3% | viability, T/C (second compound 0.1 µM, first compound 10 µM) 77.2% | viability, T/C [8] 73.6% | viability, T/C [9] 90.2% | viability, T/C (second compound 0.316 µM, first compound 0.316 µM) 73.3% | viability, T/C (second compound 0.316 µM, first compound 1 µM) 89.8% | viability, T/C (second compound 0.316 µM, first compound 3.16 µM) 83.4% | viability, T/C (second compound 0.316 µM, first compound 10 µM) 66.8% | viability, T/C [10] 70.8% | viability, T/C [11] 69% | viability, T/C (second compound 1 µM, first compound 0.316 µM) 73.4% | viability, T/C (second compound 1 µM, first compound 1 µM) 78% | viability, T/C (second compound 1 µM, first compound 3.16 µM) 66.3% | viability, T/C (second compound 1 µM, first compound 10 µM) 66.4% | viability, T/C [12] 63.4% | viability, T/C [13] 75.6% | viability, T/C (second compound 3.16 µM, first compound 0.316 µM) 67.6% | viability, T/C (second compound 3.16 µM, first compound 1 µM) 65.8% | viability, T/C (second compound 3.16 µM, first compound 3.16 µM) 66.9% | viability, T/C (second compound 3.16 µM, first compound 10 µM) 57.9% | viability, T/C [14] 68% | viability, T/C [15] 80.7% | viability, T/C (second compound 10 µM, first compound 0.316 µM) 60.6% | viability, T/C (second compound 10 µM, first compound 1 µM) 54.2% | viability, T/C (second compound 10 µM, first compound 3.16 µM) 57.1% | viability, T/C (second compound 10 µM, first compound 10 µM) 77.5%
> 10000 nM: IC50 [1] | IC50 [2] | IC50 [3] | IC50 [4] | IC50 [5]

NC1CCC(NC2CC2c2ccccc2)CC1 (configuration not stated) + Cc1c(S(C)(=O)=O)c(-c2cc(F)cc(N3CCN(c4ccc(NS(=O)(=O)c5ccc(NC(CCN6CCC(C(=O)OCCCP(=O)(O)O)CC6)CSc6ccccc6)c(S(=O)(=O)C(F)(F)F)c5)cc4)CC3)c2)c(-c2ccc(Cl)cc2)n1C(C)C
inactive: viability, T/C (second compound 0.1 µM, first compound 0.000316 µM) 74.9% | viability, T/C (second compound 0.1 µM, first compound 0.001 µM) 90.3% | viability, T/C (second compound 0.1 µM, first compound 0.00316 µM) 64.5% | viability, T/C (second compound 0.1 µM, first compound 0.01 µM) 77.2% | viability, T/C [6] 75.6% | viability, T/C [7] 76.9% | viability, T/C (second compound 0.316 µM, first compound 0.000316 µM) 74% | viability, T/C (second compound 0.316 µM, first compound 0.001 µM) 83.3% | viability, T/C (second compound 0.316 µM, first compound 0.00316 µM) 67.2% | viability, T/C (second compound 0.316 µM, first compound 0.01 µM) 82.5% | viability, T/C [8] 80.5% | viability, T/C [9] 75.5% | viability, T/C (second compound 1 µM, first compound 0.000316 µM) 62.9% | viability, T/C (second compound 1 µM, first compound 0.001 µM) 64% | viability, T/C (second compound 1 µM, first compound 0.00316 µM) 67.8% | viability, T/C (second compound 1 µM, first compound 0.01 µM) 64.8% | viability, T/C [10] 62.4% | viability, T/C [11] 56.4% | viability, T/C (second compound 3.16 µM, first compound 0.000316 µM) 58.8% | viability, T/C (second compound 3.16 µM, first compound 0.001 µM) 73.7% | viability, T/C (second compound 3.16 µM, first compound 0.00316 µM) 64.5% | viability, T/C (second compound 3.16 µM, first compound 0.01 µM) 54.4% | viability, T/C [12] 71.9% | viability, T/C [13] 58.2% | viability, T/C (second compound 10 µM, first compound 0.000316 µM) 61.5% | viability, T/C (second compound 10 µM, first compound 0.001 µM) 57.2% | viability, T/C (second compound 10 µM, first compound 0.00316 µM) 56.8% | viability, T/C (second compound 10 µM, first compound 0.01 µM) 50.1% | viability, T/C [14] 69.5% | viability, T/C [15] 63.4%
> 100 nM: IC50 [1] | IC50 [2] | IC50 [3] | IC50 [4] | IC50 [5]

CCN1CCN(Cc2ccc(Nc3ncc(F)c(-c4cc(F)c5nc(C)n(C(C)C)c5c4)n3)nc2)CC1 + CCN1C(C(=O)NC23CCC(C(=O)O)(CC2)CC3)C(c2cccc(Cl)c2F)C2(C(=O)Nc3cc(Cl)ccc32)C12CCCCC2
inactive: viability, T/C [21] 91.6% | viability, T/C [22] 84.4% | viability, T/C [23] 94% | viability, T/C [24] 81.8% | viability, T/C (second compound 0.03 µM, first compound 0.316 µM) 102% | viability, T/C (second compound 0.03 µM, first compound 1 µM) 88% | viability, T/C [25] 107% | viability, T/C [26] 98% | viability, T/C [27] 95.2% | viability, T/C [28] 106% | viability, T/C (second compound 0.0949 µM, first compound 0.316 µM) 98.2% | viability, T/C (second compound 0.0949 µM, first compound 1 µM) 87.2% | viability, T/C [29] 102% | viability, T/C [30] 82.5% | viability, T/C [31] 96.8% | viability, T/C [32] 99.7% | viability, T/C (second compound 0.3 µM, first compound 0.316 µM) 92.3% | viability, T/C (second compound 0.3 µM, first compound 1 µM) 88.4% | viability, T/C [33] 84.9% | viability, T/C [34] 88.5% | viability, T/C [35] 92.9% | viability, T/C [36] 92.9% | viability, T/C (second compound 0.949 µM, first compound 0.316 µM) 81.1% | viability, T/C (second compound 0.949 µM, first compound 1 µM) 91.6% | viability, T/C [37] 81.7% | viability, T/C [38] 83.3% | viability, T/C [39] 82.6% | viability, T/C [40] 83.5% | viability, T/C (second compound 3 µM, first compound 0.316 µM) 87.2% | viability, T/C (second compound 3 µM, first compound 1 µM) 86.2%
> 1000 nM: IC50 [16] | IC50 [17] | IC50 [18] | IC50 [19] | IC50 [20]

NC1CCC(NC2CC2c2ccccc2)CC1 (configuration not stated) + CCN1C(C(=O)NC23CCC(C(=O)O)(CC2)CC3)C(c2cccc(Cl)c2F)C2(C(=O)Nc3cc(Cl)ccc32)C12CCCCC2
inactive: viability, T/C (second compound 0.03 µM, first compound 0.000316 µM) 105% | viability, T/C (second compound 0.03 µM, first compound 0.001 µM) 103% | viability, T/C [21] 107% | viability, T/C [22] 98.7% | viability, T/C [23] 97.7% | viability, T/C [24] 84.5% | viability, T/C (second compound 0.0949 µM, first compound 0.000316 µM) 113% | viability, T/C (second compound 0.0949 µM, first compound 0.001 µM) 105% | viability, T/C [25] 100% | viability, T/C [26] 93% | viability, T/C [27] 107% | viability, T/C [28] 103% | viability, T/C (second compound 0.3 µM, first compound 0.000316 µM) 108% | viability, T/C (second compound 0.3 µM, first compound 0.001 µM) 100% | viability, T/C [29] 105% | viability, T/C [30] 100% | viability, T/C [31] 97.7% | viability, T/C [32] 96.6% | viability, T/C (second compound 0.949 µM, first compound 0.000316 µM) 107% | viability, T/C (second compound 0.949 µM, first compound 0.001 µM) 92.1% | viability, T/C [33] 82.9% | viability, T/C [34] 106% | viability, T/C [35] 95.2% | viability, T/C [36] 96.5% | viability, T/C (second compound 3 µM, first compound 0.000316 µM) 85.7% | viability, T/C (second compound 3 µM, first compound 0.001 µM) 101% | viability, T/C [37] 89.1% | viability, T/C [38] 85.1% | viability, T/C [39] 92.8% | viability, T/C [40] 92.7%
> 100 nM: IC50 [16] | IC50 [17] | IC50 [18] | IC50 [19] | IC50 [20]

COc1c(OCCCN2CCOCC2)ccc2c3n(c(=NC(=O)c4cnc(N)nc4)nc12)CCN3
inactive: viability, T/C (compound 0.00316 µM) 78.2% and 82.3% and 79.7% | viability, T/C (compound 0.01 µM) 72.5% and 69% and 57% | viability, T/C (compound 0.0316 µM) 46.2% and 48.9% and 45.8% | viability, T/C (compound 0.1 µM) 48.2% and 42% and 41% | viability, T/C (compound 0.316 µM) 31.7% and 22.4% and 24.1% | viability, T/C (compound 1 µM) 11.9% and 14.8% and 17.5%
53.7 nM and 38.1 nM and 25.9 nM: IC50 (curve of compound)
